“And” between values parts separate entries of the source, which are not always exact repeats. Equal entries are not always repeated. Inconclusive results and toxic doses are left out.

The experiment relates to P388 leukemia ip, CD2F1 mice, survival T/C. The experiment in a line: NCI In Vivo Anticancer Drug Screen. Data for tumor model P388 Leukemia (intraperitoneal) in CD2F1 (CDF1) mice. The conditions noted are these: endpoint: median survival time, higher = longer survival. The procedure, abridged:
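Mice carrying the transplanted tumor received test compound or vehicle. Survival was recorded in each group, and the value is the treated-group measurement divided by that of the vehicle-treated control group.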

Where [1] appears, read: dose: 60.0 mg/kg/injection, schedule: Q01DX005 (ip), vehicle: Klucel (hydroxypropylcellulose) (HPC).
The mark [2] stands for this setting: dose: 120.0 mg/kg/injection, schedule: Q01DX005 (ip), vehicle: Klucel (hydroxypropylcellulose) (HPC).

In the case of `CCN(CC)c1ccc(/C=C/c2ccnc3ccccc23)cc1`, the T/C is, setting by setting: (dose: 12.5 mg/kg/injection, schedule: Q01DX009 (ip), vehicle: saline with Tween-80) 118 % of control; (dose: 12.5 mg/kg/injection, schedule: Q04DX003 (ip), vehicle: saline sonified) 100 % of control; (dose: 12.5 mg/kg/injection, schedule: Q04DX003 (ip), vehicle: saline with Tween-80) 90 % of control; (dose: 20.0 mg/kg/injection, schedule: Q04DX003 (ip), vehicle: saline) 113 % of control; (dose: 25.0 mg/kg/injection, schedule: Q01DX009 (ip), vehicle: saline with Tween-80) 104 % of control; (dose: 25.0 mg/kg/injection, schedule: Q04DX003 (ip), vehicle: saline sonified) 104 % of control. Also, the T/C was 100 % of control (dose: 25.0 mg/kg/injection, schedule: Q04DX003 (ip), vehicle: saline with Tween-80); 118 % of control (dose: 40.0 mg/kg/injection, schedule: Q04DX003 (ip), vehicle: saline); 109 % of control (dose: 50.0 mg/kg/injection, schedule: Q04DX003 (ip), vehicle: saline sonified); 109 % of control (dose: 50.0 mg/kg/injection, schedule: Q04DX003 (ip), vehicle: saline with Tween-80).
Take `CCOc1c(N=Nc2ccc([N+](=O)[O-])cc2)c(C)nn1C(N)=S`: the T/C is, setting by setting: under setting [1], 93 % of control; under setting [2], 95 % of control; (dose: 240.0 mg/kg/injection, schedule: Q01DX005 (ip), vehicle: Klucel (hydroxypropylcellulose) (HPC)) 98 % of control.
Take `Cc1ccc(-c2nc3n(c2/C=N/NS(=O)(=O)c2ccc(C)cc2)CCS3)cc1`: the T/C is 100 % of control (dose: 100.0 mg/kg/injection, schedule: Q01DX001 (ip), vehicle: Klucel (hydroxypropylcellulose) (HPC)); 93 % of control (dose: 200.0 mg/kg/injection, schedule: Q01DX001 (ip), vehicle: Klucel (hydroxypropylcellulose) (HPC)); 91 % of control (dose: 400.0 mg/kg/injection, schedule: Q01DX001 (ip), vehicle: Klucel (hydroxypropylcellulose) (HPC)).
For `Clc1ccc(COC(Cn2ccnc2)c2ccc(Cl)cc2Cl)c(Cl)c1` (stereo not given), the T/C is 107 % of control (dose: 9.37 mg/kg/injection, schedule: Q01DX009 (ip), vehicle: saline with Tween-80); 99 % of control (dose: 18.75 mg/kg/injection, schedule: Q01DX005 (ip), vehicle: saline with Tween-80); 106 % of control (dose: 37.5 mg/kg/injection, schedule: Q01DX005 (ip), vehicle: saline with Tween-80); 104 % of control (dose: 37.5 mg/kg/injection, schedule: Q01DX009 (ip), vehicle: saline with Tween-80); 108 % of control (dose: 75.0 mg/kg/injection, schedule: Q01DX005 (ip), vehicle: saline with Tween-80); 112 % of control (dose: 75.0 mg/kg/injection, schedule: Q01DX009 (ip), vehicle: saline with Tween-80). The T/C is 110 % of control (dose: 150.0 mg/kg/injection, schedule: Q01DX005 (ip), vehicle: saline with Tween-80) and 107 % of control (dose: 150.0 mg/kg/injection, schedule: Q01DX009 (ip), vehicle: saline with Tween-80).
As for `COc1ccc2nc3cc(Cl)ccc3c(NN3CCN(CCO)CC3)c2c1`, the T/C by setting is: (dose: 0.19 mg/kg/injection, schedule: Q01DX009 (ip), vehicle: DMSO) 86 % of control; (dose: 0.38 mg/kg/injection, schedule: Q01DX009 (ip), vehicle: DMSO) 98 % of control and 89 % of control; (dose: 0.75 mg/kg/injection, schedule: Q01DX009 (ip), vehicle: DMSO) 98 % of control; (dose: 1.5 mg/kg/injection, schedule: Q01DX009 (ip), vehicle: DMSO) 107 % of control and 95 % of control; (dose: 23.0 micrograms/kg/injection, schedule: Q01DX009 (ip), vehicle: DMSO) 87 % of control; (dose: 47.0 micrograms/kg/injection, schedule: Q01DX009 (ip), vehicle: DMSO) 91 % of control. For the same molecule, the T/C (dose: 94.0 micrograms/kg/injection, schedule: Q01DX009 (ip), vehicle: DMSO) was 89 % of control.
Regarding `Cc1ccc(C#N)c(Cl)c1`, the T/C is 100 % of control (dose: 50.0 mg/kg/injection, schedule: Q01DX009 (ip), vehicle: saline); 100 % of control (dose: 100.0 mg/kg/injection, schedule: Q01DX009 (ip), vehicle: saline); 106 % of control (dose: 200.0 mg/kg/injection, schedule: Q01DX009 (ip), vehicle: saline).
Consider `NC1=C(O)C(=O)C(c2ccc3c(c2)CCC3)O1` (stereo not given), for which the T/C runs as follows: under setting [1], 91 % of control; under setting [2], 87 % of control.
For `Clc1ccc(C2=NC(c3ccccc3)/C(=C/c3ccccc3)S2)cc1` (stereo not given), the T/C (dose: 50.0 mg/kg/injection, schedule: Q01DX009 (ip), vehicle: saline with Tween-80) was 101 % of control; the T/C (dose: 100.0 mg/kg/injection, schedule: Q01DX009 (ip), vehicle: saline with Tween-80) was 98 % of control; the T/C (dose: 200.0 mg/kg/injection, schedule: Q01DX009 (ip), vehicle: saline with Tween-80) is 90 % of control.
As for `CCC1(O)CC2CN(CCc3c([nH]c4ccccc34)C(C(=O)OC)(c3cc4c(cc3OC)N(C)C3C(O)(C(N)=O)C(O)C5(CC)C=CCN6CCC43C65)C2)C1` (stereo not given) (tested in a mixture with another compound), the T/C by setting is: (dose: 0.06 mg/kg/injection, schedule: Q01DX009 (ip), vehicle: water) 107 % of control; (dose: 0.11 mg/kg/injection, schedule: Q04DX003 (ip), vehicle: clinical formulation) 158 % of control; (dose: 0.13 mg/kg/injection, schedule: Q04DX003 (ip), vehicle: saline) 161 % of control; (dose: 0.18 mg/kg/injection, schedule: Q04DX003 (ip), vehicle: clinical formulation) 161 % of control; (dose: 0.22 mg/kg/injection, schedule: Q01DX009 (ip), vehicle: water) 123 % of control; (dose: 0.25 mg/kg/injection, schedule: Q04DX003 (ip), vehicle: water) 158 % of control. In addition, the T/C is 180 % of control (dose: 0.3 mg/kg/injection, schedule: Q04DX003 (ip), vehicle: clinical formulation); 179 % of control (dose: 0.5 mg/kg/injection, schedule: Q04DX003 (ip), vehicle: clinical formulation); 203 % of control and 216 % of control (dose: 0.5 mg/kg/injection, schedule: Q04DX003 (ip), vehicle: saline); 163 % of control (dose: 0.5 mg/kg/injection, schedule: Q04DX003 (ip), vehicle: water); 97 % of control (dose: 0.6 mg/kg/injection, schedule: Q01DX009 (ip), vehicle: water); 177 % of control (dose: 0.67 mg/kg/injection, schedule: Q04DX003 (ip), vehicle: saline). For the same molecule, the T/C by setting is: (dose: 0.67 mg/kg/injection, schedule: Q04DX003 (ip), vehicle: water) 202 % of control; (dose: 0.83 mg/kg/injection, schedule: Q04DX003 (ip), vehicle: clinical formulation) 215 % of control; (dose: 1.0 mg/kg/injection, schedule: Q01DX009 (ip), vehicle: water) 100 % of control and 223 % of control; (dose: 1.0 mg/kg/injection, schedule: Q04DX003 (ip), vehicle: saline) 189 % of control and 191 % of control; (dose: 1.0 mg/kg/injection, schedule: Q04DX003 (ip), vehicle: water) 188 % of control and 200 % of control; (dose: 1.08 mg/kg/injection, schedule: Q04DX003 (ip), vehicle: clinical formulation) 170 % of control. Also, the T/C (dose: 1.3 mg/kg/injection, schedule: Q04DX003 (ip), vehicle: water) was 222 % of control; the T/C (dose: 1.5 mg/kg/injection, schedule: Q04DX003 (ip), vehicle: saline) is 184 % of control; the T/C (dose: 1.5 mg/kg/injection, schedule: Q04DX003 (ip), vehicle: water) was 268 % of control; the T/C (dose: 1.8 mg/kg/injection, schedule: Q04DX003 (ip), vehicle: clinical formulation) is 173 % of control; the T/C (dose: 2.0 mg/kg/injection, schedule: Q04DX003 (ip), vehicle: water) is 186 % of control and 283 % of control; the T/C (dose: 3.0 mg/kg/injection, schedule: Q04DX003 (ip), vehicle: clinical formulation) was 95 % of control. Also, the T/C (dose: 3.0 mg/kg/injection, schedule: Q04DX003 (ip), vehicle: water) is 123 % of control.
Take `NC(=O)CNC(=O)NC(Cc1ccccc1)C(=O)O` (stereo not given): the T/C by setting is: (dose: 50.0 mg/kg/injection, schedule: Q01DX005 (ip), vehicle: saline with Tween-80) 105 % of control; (dose: 100.0 mg/kg/injection, schedule: Q01DX005 (ip), vehicle: saline with Tween-80) 105 % of control; (dose: 200.0 mg/kg/injection, schedule: Q01DX005 (ip), vehicle: saline with Tween-80) 86 % of control.
For `O=C(N/N=C/c1ccco1)C(=O)Nc1cccc(C(F)(F)F)c1`, the T/C is, setting by setting: (dose: 12.5 mg/kg/injection, schedule: Q01DX005 (ip), vehicle: Klucel (hydroxypropylcellulose) (HPC)) 95 % of control; (dose: 25.0 mg/kg/injection, schedule: Q01DX005 (ip), vehicle: Klucel (hydroxypropylcellulose) (HPC)) 89 % of control; (dose: 50.0 mg/kg/injection, schedule: Q01DX005 (ip), vehicle: Klucel (hydroxypropylcellulose) (HPC)) 88 % of control and 95 % of control.

Source of the values: PubChem BioAssay AID330 (DTP/NCI, 2004).
